Legend:
5‐LO = target: T1, 5‐LO (Homo sapiens, UniProt P09917); assay: Biosynthesis of 5‐LO products in thapsigargin‐stimulated human PMNL; assay type: cell-based; design: endogenous in cells; host or cells: human polymorphonuclear leukocytes isolated from heparinized blood; settings: for IC50: 5‐LO product biosynthesis in human PMNL, mean (95% confidence interval); for Inhibition of LT biosynthesis in human PMNL: 1 μmol/L, 5 min, 1 μmol/L thapsigargin 15 min
T1 sequence (P09917 1-674): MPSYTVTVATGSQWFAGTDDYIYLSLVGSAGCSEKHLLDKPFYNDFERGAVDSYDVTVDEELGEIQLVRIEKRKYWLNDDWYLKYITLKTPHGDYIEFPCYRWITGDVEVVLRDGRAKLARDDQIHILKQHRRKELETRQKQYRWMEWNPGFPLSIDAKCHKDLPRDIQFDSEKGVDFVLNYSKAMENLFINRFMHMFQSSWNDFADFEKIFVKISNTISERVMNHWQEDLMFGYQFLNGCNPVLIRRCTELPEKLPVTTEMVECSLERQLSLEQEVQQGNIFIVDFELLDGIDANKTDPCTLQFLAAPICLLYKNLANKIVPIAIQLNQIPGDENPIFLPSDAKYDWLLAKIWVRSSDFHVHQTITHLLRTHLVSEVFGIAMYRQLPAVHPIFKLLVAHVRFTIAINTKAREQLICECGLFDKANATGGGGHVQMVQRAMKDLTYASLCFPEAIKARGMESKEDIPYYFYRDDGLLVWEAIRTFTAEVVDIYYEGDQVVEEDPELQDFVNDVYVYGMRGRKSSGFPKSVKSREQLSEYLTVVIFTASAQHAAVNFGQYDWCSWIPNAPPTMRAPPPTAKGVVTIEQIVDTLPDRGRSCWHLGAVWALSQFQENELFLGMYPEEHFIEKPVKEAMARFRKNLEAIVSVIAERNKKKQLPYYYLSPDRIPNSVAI
Procedure: Heparinized blood (see Ethics statement) was collected, centrifuged at 200g for 10 minutes to collect plasma, and erythrocytes were sedimented in dextran. PMNL were obtained after centrifugation on a lymphocyte separation medium cushion (density, 1.077 g/mL) (Wisent) at 900 g for 20 minutes, followed by hypotonic lysis to remove residual erythrocytes.33 PMNL were counted and resuspended at 10^7 cells/mL in HBSS supplemented with 1.6 mmol/L CaCl2 and 0.3 U/mL adenosine deaminase (Sigma‐Aldrich). PMNL were preincubated with the test compounds or their diluent (0.1% DMSO) for 5 minutes at 37°C and were then stimulated with 1 µmol/L thapsigargin (Sigma‐Aldrich) for 15 minutes at 37°C.27 Reactions were stopped by adding two volumes of CH3OH:CH3CN (1:1) containing the internal standard PGB2 (100 ng/mL), and samples were processed for RP‐HPLC analysis of 5‐LO products.
(A) The structures of CAPE (2) and its analogues investigated in this study. (B) Isolated human PMNL were incubated in presence of test compounds (1 μmol/L) or their diluent (Control, 0.1% DMSO) for 5 minutes. PMNL were stimulated with 1 μmol/L of thapsigargin for 15 minutes at 37°C. The stimulation was then stopped, and samples were processed for analysis of 5‐LO products using RP‐HPLC. Total 5‐LO products measured represent LTB4, its trans isomers, 20‐OH‐LTB4, 20‐COOH‐LTB4 and 5‐hydroxyeicosatetraenoic acid. Data are expressed as means ± SEM of at least three independent experiments. *Difference from control, as determined using one‐way ANOVA with Dunnett's multiple comparison test (P < .05)

HepaRG cells = assay: Metabolite identification by LC‐MS/MS in HepaRG cell culture; assay type: in vitro ADME, human; settings: 50 µmol/L, 7.5 and 60 minutes
Procedure: Differentiated HepaRG cells, plated in 24 well plates, were washed with hepatocyte suspension medium (Williams E‐medium without phenol red, supplemented with 2 mmol/L Glutamax and […] HEPES) before addition of hepatocyte suspension medium (250 µL/well) containing (30 or 50 µmol/L) of the test compounds or their diluent. Cells were then incubated for 7.5, 15, 30, 60 or 90 minutes at 37°C after which the medium was removed.
In other experiments, LC‐MS/MS analysis was performed to identify metabolites of test compounds that had been incubated with HepaRG cells. First, fifty micromolar standards of the test compounds were diluted 3000‐fold and analyzed using electrospray ionization mass spectrometry on a linear quadrupole ion trap (LTQ‐XL) from Thermo‐Fisher Scientific (San Jose). Full scan spectra were collected using both ionization polarities for confirmation of the intact molecular weight of each compounds based on the expected [M + H]^+ and [M−H]^− pseudo‐molecular ions observed using mass spectrometry. The diluted standards were then subjected to reversed‐phase partition chromatography on an Altima C18 column produced by HiChrom and distributed by VWR (Mississsauga, ON). The LC system was a Dionex Ultimate 3000. The mass spectrometer electrospray source was used at 40 µL/min with a nitrogen sheath gas of 15, a spray voltage of ±4 kV, a capillary voltage of ±35 V, a tube lens of ±175 V and a capillary temperature of 160°C. Samples that had been collected from HepaRG cultures were purified on C18 cartridges and eluted with CH3OH. For the first injection of extracted samples, the MS method consisted of a repeated loop of full scan (m/z 100‐800), product ion scan based on the intact mass determined from infusion of the standards and one product ion scan. […]
Figure 7 Metabolite identification using negative ion LC‐MS/MS in HepaRG cell culture. […] Right panels show the MS and MS/MS of the generated metabolites detected at 60 minutes. […]

`O=C(/C=C/c1ccc(O)c(O)c1)OCCc1ccccc1` [CAPE (2), caffeic acid phenethyl ester, reference compound] gave an IC50 (5‐LO) of 970 nM.

For `O=C(/C=C/c1cc(O)ccc1O)OCCc1ccccc1` [compound 5], the “Inhibition of LT biosynthesis in human PMNL” value (shortened to “Inhibition of LT biosynthesis”) (5‐LO) was “near complete inhibition” and the IC50 (5‐LO) was 320 nM.

In the case of `O=C(/C=C/c1ccc(O)c(O)c1)CCCc1ccccc1` [compound 7], the “Inhibition of LT biosynthesis” value (5‐LO) is reported as “near complete inhibition”, the IC50 (5‐LO) is reported as 520 nM and the “Metabolites formed in HepaRG cell culture” value (shortened to “Metabolites formed”) (HepaRG cells) is reported as “α,β‐unsaturated ketone reduction”.

With `O=C(/C=C/c1cc(O)ccc1O)CCc1ccccc1` [compound 8] the IC50 (5‐LO) was 510 nM and the “Metabolites formed” value (HepaRG cells) was “α,β‐unsaturated ketone reduction”.

For `COc1cc(/C=C/C(=O)CCc2ccccc2)cc(OC)c1O` [compound 10, sinapic acid phenethyl ketone], the “Inhibition of LT biosynthesis” value (5‐LO) was “near complete inhibition”, the IC50 (5‐LO) was 410 nM and the “Metabolites formed” value (HepaRG cells) was “α,β‐unsaturated ketone reduction”.
